Test results published in patent publication US7632813B2, “Bone densifying agent characterized by use of cathepsin K inhibitor with PTH” (Ono Pharmaceutical Co., Ltd., priority 2004, dated 2009).
Where no end group is shown, it is not given here.

Tests used:
Format in all cases: in vivo
[1] = system: ovariectomized rat osteoporosis model (OVX); experiment: Experiment 1: serum osteocalcin (OC) concentration, bone formation marker, in OVX rats; details: for serum OC concentration (bone formation marker) at intermediate autopsy: Experiment 1, FIG. 2, repeated oral administration for 55 days; for serum OC concentration on the 83rd day, in combination with PTH: combination with PTH compared with PTH sole administration
Description: (§1) For the purpose of clarifying the characteristics, the effect of a cathepsin K inhibitor (a bone resorption inhibitor) in combination with a type of PTH (a bone formation stimulator) was examined using an ovariectomized rat osteoporosis model (abbreviated as OVX hereafter). The effect of a bisphosphonate (BP) in combination with a type of PTH was also examined. The effects were compared with each other.
(§2) In the following examples, PTH (1-34) is abbreviated as PTH unless specified. 2) Test Method Experiment 1 (Administration Schedule 1): Administration in Combination with PTH After Repeated Administration of Bone Resorption Inhibitor
(§3) Female retired rats (F344/NSlc) were used. At the age of 6 months, 87 rats were assigned to OVX (ovariectomy) and the other 10 rats were assigned to sham operation.
(§4) Another 15 rats were assigned to OVX and 5 rats were assigned to sham operation, in order to these groups to an autopsy in the course.
(§5) To the group the compound was administered; a bone resorption inhibitor was administered orally from the next day of OVX over a period of 83 days.
On 55 days after OVX, the autopsy was done in autopsy group. Other groups to which the compound was administered, a bone resorption inhibitor was administered orally, and PTH or vehicle (saline containing 0.1% BSA) was administered subcutaneously, 55 days after OVX. […] The interval between the first and the second administration was 5-7 hours.
(§6) PTH was administered by subcutaneous injection from the back three times a week by a dose of 10 μg/kg from the 57th day after OVX. The drugs were administed according to the grouping of table 1.
(§7) In the group in which the compound was administered, on the 83rd day after OVX, BMD of tibia, lumbar BMD, concentration of urinary C-terminal telopeptide of type I collagen (CTX) and serum osteocalcin (OC) were measured. In the autopsy groups, concentration of urinary CTX and serum OC were measured on samples from the 55th day.
Fifty-five days after administration, in the autopsy, collected serum was used to measure the serum OC concentration with a kit for OC measurement (BIOTRAK; Osteocalcin, rat ELISA system).
(§8) In order to compare the sham group and the OVX control group, t-test (EXSAS (version 6.1), ARM SYSTEX CO., LTD.); in order to compare the effectiveness of the test compounds, Tukey test (EXSAS (version 6.1), ARM SYSTEX CO., LTD.), were used respectively. Less than 5% was assumed to be a significant difference.

[2] = system: ovariectomized rat osteoporosis model (OVX); experiment: Experiment 1: urinary CTX concentration, bone resorption marker, in OVX rats; details: Experiment 1, FIG. 4; for urinary CTX concentration on the 83rd day, combination administration with PTH: in combination with PTH
Description: For the purpose of clarifying the characteristics, the effect of a cathepsin K inhibitor (a bone resorption inhibitor) in combination with a type of PTH (a bone formation stimulator) was examined using an ovariectomized rat osteoporosis model (abbreviated as OVX hereafter). The effect of a bisphosphonate (BP) in combination with a type of PTH was also examined. The effects were compared with each other. • (1) a solution of the compound (I): […] In the following examples, PTH (1-34) is abbreviated as PTH unless specified. 2) Test Method Experiment 1 (Administration Schedule 1): Administration in Combination with PTH After Repeated Administration of Bone Resorption Inhibitor Female retired rats ([…] used. At the age of 6 months, 87 rats were assigned to OVX (ovariectomy) and the other 10 rats were assigned to sham operation. To the group the compound was administered; a bone resorption inhibitor was administered orally from the next day of OVX over a period of 83 days. […] On 55 days after OVX, the autopsy was done in autopsy group. Other groups to which the compound was administered, a bone resorption inhibitor was administered orally, and PTH or vehicle (saline containing 0.1% BSA) was administered subcutaneously, 55 days after OVX. […] The interval between the first and the second administration was 5-7 hours. PTH was administered by subcutaneous injection from the back three times a week by a dose of 10 μg/kg from the 57th day after OVX. The drugs were administed according to the grouping of table 1. In the group in which the compound was administered, on the 83rd day after OVX, BMD of tibia, lumbar BMD, concentration of urinary C-terminal telopeptide of type I collagen (CTX) and serum osteocalcin (OC) were measured. In the autopsy groups, concentration of urinary CTX and serum OC were measured on samples from the 55th day. Urine was collected before the day of an autopsy, and urinary CTX was measured with a kit for rat CTX measurement (RatLaps ELISA; nordicbioscience). In measurement of absorbance, microplate reader (SPECTRA MAX 250, Japan Molecular Devices Inc.) was used. […] In order to compare the sham group and the OVX control group, […] CO., LTD.); in order to compare the effectiveness of the test compounds, Tukey test ([…] CO., LTD.), were used respectively. Less than 5% was assumed to be a significant difference.

[3] = system: ovariectomized rat osteoporosis model (OVX); experiment: Experiment 2 (administration schedule 2): BMD of tibia by pQCT in OVX rats; details: Experiment 2, FIG. 5; for BMD of the tibia on the 83rd day, each alone: 83 days from next day of OVX, sole administration
[4] = system: ovariectomized rat osteoporosis model (OVX); experiment: Experiment 2: urinary CTX concentration in OVX rats; details: Experiment 2, FIG. 6
[5] = system: ovariectomized rat osteoporosis model (OVX); experiment: Experiment 1 (administration schedule 1): BMD of left proximal tibia by pQCT in OVX rats; details: for BMD of the left leg tibia (4 mm slice from proximal end) at intermediate autopsy: Experiment 1, FIG. 1, oral sole administration from next day of OVX, intermediate autopsy 56 days after OVX; for BMD of the left leg tibia on the 83rd day, in combination with PTH / BMD of the left leg tibia on the 83rd day, each alone: Experiment 1, FIG. 3; for BMD of the left leg tibia on the 83rd day, in combination with PTH: bone resorption inhibitor 83 days orally plus PTH 10 μg/kg s.c. from 57th day, versus PTH alone; for BMD of the left leg tibia on the 83rd day, each alone: sole administration, OVX-induced BMD loss
Description: as §1, §2, §3, §4, §5
[…] Other groups to which the compound was administered, a bone resorption inhibitor was administered orally, and PTH or vehicle (saline containing 0.1% BSA) was administered subcutaneously, 55 days after OVX. […] The interval between the first and the second administration was 5-7 hours.
as §6, §7
The BMD was determined by measurement device of peripheral BMD (pQCT: peripheral Quantitative Computed Tomography, XCT-Research SA+Stratec Medizintechnik GmbH, version 5.40) with voxel size 0.12 mm. The BMD of the left proximal tibia (at a point 4 mm from the proximal end) was measured.
as §8

Molecule | serum OC concentration (bone formation marker) at intermediate autopsy [1] | serum OC concentration on the 83rd day, in combination with PTH ([1]; Experiment 1, FIG. 4) | urinary CTX concentration on the 83rd day, combination administration with PTH [2] | urinary CTX concentration on the 83rd day, sole administration [2] | urinary CTX inhibitory effect compared with compound (I) ([2]; sole and combination administration with PTH) | BMD of the tibia on the 83rd day, each alone [3] | inhibitory effect on urinary CTX compared with compound (I) [4] | BMD of the left leg tibia (4 mm slice from proximal end) at intermediate autopsy [5] | BMD of the left leg tibia on the 83rd day, in combination with PTH [5] | BMD of the left leg tibia on the 83rd day, each alone [5] | effect on increase of BMD of tibia in combination with PTH ([3]; 83 days in combination with PTH 3 μg/kg s.c.) | urinary CTX concentration (bone resorption marker) on the 83rd day, combination administration ([4]; in combination with PTH) | urinary CTX concentration (bone resorption marker) on the 83rd day, sole administration ([4]; sole administration group) | serum OC concentration on the 83rd day, PTH sole administration ([1]; Experiment 1, FIG. 4, PTH 10 μg/kg s.c.)
NCCCC(O)(P(=O)(O)O)P(=O)(O)O [ALN, Alendronate sodium hydrate] | decreased | significantly decreased serum OC concentration | showed a urinary CTX inhibitory effect | showed a urinary CTX inhibitory effect | weaker than that of compound (I) | inhibited the reduction of BMD of tibia caused by OVX | weaker than that of compound (I) | showed an increasing effect of BMD in the tibia | did not show any additive effect | suppressed the OVX-induced BMD loss in the tibia |  |  |  | 
CN1CCS/C1=N\NC(=O)C(=O)C(NC(=O)C1CCCCCC1)C1CCOCC1.Cl (stereo not drawn) [compound (I), N-{3-[(2Z)-2-(3-methyl-1,3-thiazolidin-2-ylidene)hydrazino]-2,3-dioxo-1-tetrahydro-2H-pyran-4-ylpropyl}cycloheptanecarboxamide hydrochloride] | not decreased | did not decrease the serum OC concentration significantly | showed an inhibitory effect | showed an inhibitory effect |  | inhibited the reduction of BMD of tibia caused by OVX |  | showed an increasing effect of BMD in the tibia | showed an additive effect in BMD of tibia | suppressed the OVX-induced BMD loss in the tibia | greater than that of ALN in combination with PTH | has an inhibitory effect on urinary CTX concentration | has an inhibitory effect on urinary CTX concentration | 
human PTH (1-34) amide (SVSEIQLMHNLGKHLNSMERVEWLRKKLQDVHNF-NH2; UniProt P01270 32-65, looked up, fragment) [partial peptide of PTH, bone formation stimulator (APC Lot.N05129A1)] |  |  |  |  |  | inhibited the reduction of BMD of tibia caused by OVX |  |  |  | suppressed the OVX-induced BMD loss in the tibia |  |  |  | increased
